Each structure is given as a SMILES string. Bounds are passed on as bounds.

Assay [1] has as its target T1, human EP4 receptor (Homo sapiens, UniProt P35408).
T1 construct: purchased Chemicon
Briefly: Human EP4 receptor antagonistic action by measurement of cAMP amount in human Jurkat cells. The class given is cell-based. Conditions: PGE2 100 nmol/L, average of three experiments, read-out: IC50 value with respect to the cAMP production action by PGE2 in human Jurkat cells. As for the experimental part:
Test Example 3: Evaluation Test of Human EP4 Receptor Antagonistic Action by Measurement of cAMP Amount in Human Jurkat Cells
Jurkat cells (derived from human leukemia T lymphoma) were cultured under the conditions of 37° C. and 5% CO2, using an RPMI1640 culture medium (product No. 11879020, Invitrogen Inc.) with 10% fetal bovine serum (FBS) added. After proliferation up to semiconfluency, indomethacin having a final concentration of […] was added thereto, and the cells were further cultured for 18 hours. These cells were collected in a 15 mL Spitz tube, prepared at 1×10^6 cells/mL using a Cell Banker (Mitsubishi Kagaku Iatron), and stored at −80° C. […]
A cAMP HiRange kit (Cisbio international) was used for cAMP measurement. […] After incubation, the fluorescence intensity of the cryptate at 620 nm and the fluorescence intensity of the d2 at 665 nm were measured using ARVO1420 (PerkinElmer). The cAMPs at 280, 70, 17.5, 4.38, 1.09, 0.27, and 0.068 nmol/L were added to each well and the fluorescence intensity was measured as described above to create a standard curve. […] An average value was calculated from three experiment results.
In general terms: Cyclic AMP is a second messenger, typically raised through Gs and lowered through Gi signalling.

The target of assay [2] is T2, rat EP2 receptor (Rattus norvegicus, UniProt Q62928).
T2 construct: expressed in transfected cells
T2 sequence (Q62928 whole entry): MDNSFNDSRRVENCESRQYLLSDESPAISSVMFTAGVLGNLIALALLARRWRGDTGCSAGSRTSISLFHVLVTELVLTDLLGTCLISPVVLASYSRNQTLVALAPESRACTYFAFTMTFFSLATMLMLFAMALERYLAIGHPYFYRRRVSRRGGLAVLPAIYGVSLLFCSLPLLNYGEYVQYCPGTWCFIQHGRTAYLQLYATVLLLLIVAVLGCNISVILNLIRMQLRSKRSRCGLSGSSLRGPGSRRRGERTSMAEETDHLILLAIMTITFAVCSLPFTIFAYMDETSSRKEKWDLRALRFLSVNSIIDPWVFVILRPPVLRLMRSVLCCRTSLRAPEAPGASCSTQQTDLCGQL
In words: Selectivity test: antagonistic action on rat EP2 receptor (cAMP amount, CHO-K1 cells). The class given is cell-based. The following applies: PGE2 100 nmol/L, CHO-K1 cells stably expressing rat EP2; read-out: Concentration up to which no inhibitory action of 50% or more on the increase in intracellular cAMP amount due to PGE2 through the rat EP2 receptor. The protocol: Test Example 9: Evaluation Test of Receptor Antagonistic Action on Rat EP1/EP2/EP3 Receptor (Selectivity Test)
The antagonistic action of Compound A on other subtypes ([…], EP2, and EP3) of the rat-derived PGE2 receptor was evaluated. For EP1 and EP3, the intracellular Ca^2+ amount was used as an indicator, and for EP2, the intracellular cAMP amount was used as an indicator, so as to investigate the action of the test compound.
Construction of Rat EP1, EP2, or EP3 Receptor Expressing Vector: A rat EP1 receptor gene (GenBank accession No.: D88751.1), a rat EP2 receptor gene (GenBank accession No.: NM_031088.1), or a rat EP3 receptor gene (GenBank accession No.: NM_012704.1) were inserted respectively into an expression vector pcDNA3.1-V5-His-TOPO (Invitrogen Inc.).
Construction of Cell Stably Expressing Rat EP1, EP2, or EP3 Receptor: […]
The amount of cAMP contained in the cell lysate was measured with a cAMP HiRange kit in the same manner as in Test Example 4. The ratio of the cAMP amount when the test compound was treated was calculated, by taking the cAMP amount with addition of PGE2 having a final concentration of 100 nmol/L as 100% and taking the cAMP amount without addition of PGE2 as 0%.

T1 sequence (P35408 whole entry): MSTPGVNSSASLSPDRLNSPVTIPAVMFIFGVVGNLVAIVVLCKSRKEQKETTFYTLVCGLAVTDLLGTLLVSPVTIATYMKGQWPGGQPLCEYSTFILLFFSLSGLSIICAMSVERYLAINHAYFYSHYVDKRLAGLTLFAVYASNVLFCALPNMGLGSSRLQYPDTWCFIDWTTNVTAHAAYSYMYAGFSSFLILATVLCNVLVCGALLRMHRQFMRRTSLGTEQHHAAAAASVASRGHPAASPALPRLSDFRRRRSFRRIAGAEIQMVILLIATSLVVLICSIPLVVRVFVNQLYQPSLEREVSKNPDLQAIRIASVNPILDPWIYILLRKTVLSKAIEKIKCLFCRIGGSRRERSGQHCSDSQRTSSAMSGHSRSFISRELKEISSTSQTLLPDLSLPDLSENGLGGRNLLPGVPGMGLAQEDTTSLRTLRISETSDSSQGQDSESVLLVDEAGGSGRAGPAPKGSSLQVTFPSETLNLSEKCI

For `Cc1nn(Cc2cc3ccccc3cn2)c(C(=O)N[C@@H](C)c2ccc(C(=O)O)cc2)c1Br` [Compound A, 4-[(1S)-1-({[4-bromo-1-(isoquinolin-3-ylmethyl)-3-methyl-1H-pyrazol-5-yl]carbonyl}amino)ethyl]benzoic acid], the results for the IC50 in assay [1] and in assay [2] were 0.16 nM and greater than 10 µM, respectively.

The values are drawn from patent publication US10106523B2, “Amide compound” (ASTELLAS PHARMA INC., priority 2014, dated 2018).
